The record followed here is ChEMBL document CHEMBL6127039, “An update on small molecule compounds targeting synthetic lethality for cancer therapy” (Eur J Med Chem, 2024).

As a reminder, the IC50 is the midpoint of a concentration-inhibition curve. A word on the Ki: it is the equilibrium dissociation constant of an inhibitor or competing ligand from its target. What is called half-life is the time needed for the level to fall by half in the phase considered. One may read the AUC(0-t) as the area under the concentration-time curve up to a stated or last time point. High values mean more exposure, low ones less exposure.

A short description of data set [1]: Inhibition of DNA-PK (unknown origin) expressed in human HeLa cells. It is filed as cell-based.
The nature of data set [2]: Antiproliferative activity against human HCT116-MTAP null cells assessed as reduction in cell growth incubated for 72 hrs by MTT assay. Format: functional, cell-based.
Data set [3] has as its target Protein arginine N-methyltransferase 5 (Homo sapiens, UniProt O14744). In words: Binding affinity to PRMT5 (unknown origin) assessed as inhibition constant.
For data set [4], the target named is Serine/threonine-protein kinase ATR (Homo sapiens, UniProt Q13535). The data set can be described thus: Inhibition of human recombinant ATR incubated for 40 mins by fluorescence based analysis.
Serine/threonine-protein kinase ATR, sequence (Q13535 whole entry): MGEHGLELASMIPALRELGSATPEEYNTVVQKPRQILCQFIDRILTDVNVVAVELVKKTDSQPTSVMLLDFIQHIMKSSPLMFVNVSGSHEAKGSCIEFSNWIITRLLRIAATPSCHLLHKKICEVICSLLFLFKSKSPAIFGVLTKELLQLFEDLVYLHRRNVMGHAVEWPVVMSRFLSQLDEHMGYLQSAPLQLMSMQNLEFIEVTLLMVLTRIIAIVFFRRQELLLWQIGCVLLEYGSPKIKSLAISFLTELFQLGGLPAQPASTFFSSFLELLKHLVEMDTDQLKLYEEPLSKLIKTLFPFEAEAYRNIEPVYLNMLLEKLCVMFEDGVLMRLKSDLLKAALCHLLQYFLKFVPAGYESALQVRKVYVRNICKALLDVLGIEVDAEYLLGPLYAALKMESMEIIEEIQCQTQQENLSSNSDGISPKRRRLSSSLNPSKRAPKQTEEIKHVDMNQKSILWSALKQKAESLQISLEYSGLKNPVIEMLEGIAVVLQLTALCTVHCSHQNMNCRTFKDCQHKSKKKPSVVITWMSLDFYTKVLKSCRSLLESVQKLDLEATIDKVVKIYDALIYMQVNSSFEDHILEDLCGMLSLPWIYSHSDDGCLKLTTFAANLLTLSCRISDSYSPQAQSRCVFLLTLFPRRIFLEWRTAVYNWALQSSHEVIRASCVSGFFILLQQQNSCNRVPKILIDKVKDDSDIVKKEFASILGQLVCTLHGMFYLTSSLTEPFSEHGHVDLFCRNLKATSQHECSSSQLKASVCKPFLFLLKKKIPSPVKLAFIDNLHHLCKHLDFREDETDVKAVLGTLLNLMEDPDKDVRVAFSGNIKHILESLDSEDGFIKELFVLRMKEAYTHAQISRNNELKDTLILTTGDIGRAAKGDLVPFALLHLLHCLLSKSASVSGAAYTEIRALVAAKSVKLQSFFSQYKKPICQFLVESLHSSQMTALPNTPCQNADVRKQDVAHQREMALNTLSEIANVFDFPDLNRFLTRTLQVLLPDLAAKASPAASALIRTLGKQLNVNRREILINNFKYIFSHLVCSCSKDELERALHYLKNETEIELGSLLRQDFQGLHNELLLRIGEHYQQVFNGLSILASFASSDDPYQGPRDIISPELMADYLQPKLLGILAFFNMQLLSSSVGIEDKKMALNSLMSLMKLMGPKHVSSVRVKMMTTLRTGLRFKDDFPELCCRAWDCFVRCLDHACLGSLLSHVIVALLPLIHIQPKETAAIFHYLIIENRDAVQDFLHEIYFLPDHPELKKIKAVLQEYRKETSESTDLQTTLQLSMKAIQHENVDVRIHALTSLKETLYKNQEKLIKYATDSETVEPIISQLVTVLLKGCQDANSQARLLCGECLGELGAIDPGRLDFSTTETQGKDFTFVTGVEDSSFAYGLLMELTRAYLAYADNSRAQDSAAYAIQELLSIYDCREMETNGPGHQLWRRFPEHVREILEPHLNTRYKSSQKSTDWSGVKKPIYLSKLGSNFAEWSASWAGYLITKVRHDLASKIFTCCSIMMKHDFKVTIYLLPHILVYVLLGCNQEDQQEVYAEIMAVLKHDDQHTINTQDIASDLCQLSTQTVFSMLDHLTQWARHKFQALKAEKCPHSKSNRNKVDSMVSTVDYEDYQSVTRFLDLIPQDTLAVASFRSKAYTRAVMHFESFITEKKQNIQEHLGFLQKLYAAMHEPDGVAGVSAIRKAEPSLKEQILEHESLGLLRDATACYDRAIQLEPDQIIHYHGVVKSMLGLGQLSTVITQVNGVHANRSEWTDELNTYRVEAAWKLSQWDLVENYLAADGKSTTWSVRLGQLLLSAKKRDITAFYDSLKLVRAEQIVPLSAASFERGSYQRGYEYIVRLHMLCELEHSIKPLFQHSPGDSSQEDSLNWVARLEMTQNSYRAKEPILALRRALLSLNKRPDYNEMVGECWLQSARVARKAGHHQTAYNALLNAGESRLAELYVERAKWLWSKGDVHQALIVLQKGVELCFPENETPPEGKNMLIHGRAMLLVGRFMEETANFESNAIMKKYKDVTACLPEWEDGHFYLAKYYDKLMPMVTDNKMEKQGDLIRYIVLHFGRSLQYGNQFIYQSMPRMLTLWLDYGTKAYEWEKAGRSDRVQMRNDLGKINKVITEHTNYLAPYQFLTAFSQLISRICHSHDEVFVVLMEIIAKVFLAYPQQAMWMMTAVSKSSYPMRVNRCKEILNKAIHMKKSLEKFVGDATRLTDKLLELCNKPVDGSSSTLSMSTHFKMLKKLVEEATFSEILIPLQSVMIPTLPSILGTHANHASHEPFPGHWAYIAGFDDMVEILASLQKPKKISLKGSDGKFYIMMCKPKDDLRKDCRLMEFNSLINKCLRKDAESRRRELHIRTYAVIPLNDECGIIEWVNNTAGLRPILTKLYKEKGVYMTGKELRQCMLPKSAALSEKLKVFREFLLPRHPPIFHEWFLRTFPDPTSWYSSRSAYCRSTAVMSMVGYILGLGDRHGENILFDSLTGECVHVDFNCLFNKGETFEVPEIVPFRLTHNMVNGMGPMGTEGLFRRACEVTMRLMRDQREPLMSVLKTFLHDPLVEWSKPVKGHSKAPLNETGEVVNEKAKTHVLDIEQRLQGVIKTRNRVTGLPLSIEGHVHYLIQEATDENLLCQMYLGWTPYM
Data set [5] has as its target Poly [ADP-ribose] polymerase 1 (Homo sapiens, UniProt P09874). The data set can be described thus: Inhibition of PARP-1 (unknown origin).
Data set [6] in a line: Half life in Sprague-Dawley rat at 20 mg/kg, po by LC-MS/MS analysis. Format: ADME, organism-based. The following applies: in vivo.
Data set [7] is described as follows: AUC (0 to t) in Sprague-Dawley rat at 20 mg/kg, po by LC-MS/MS analysis. Format: ADME, organism-based. The following applies: in vivo.
The next data set has as its system MV4-11. The data set can be described thus: Antiproliferative activity against human MV4-11 cells assessed as reduction in cell viability incubated for 72 hrs by MTS assay. It is filed as functional, cell-based. The following applies: MV4-11, 72 h. Background: Tetrazolium assays rely on reduction of a dye to a coloured formazan, in cell work by metabolically active cells.

In data set [8] the target is T1, Serine/threonine-protein kinase Chk1 (Homo sapiens, UniProt O14757).
T1 sequence (O14757 whole entry): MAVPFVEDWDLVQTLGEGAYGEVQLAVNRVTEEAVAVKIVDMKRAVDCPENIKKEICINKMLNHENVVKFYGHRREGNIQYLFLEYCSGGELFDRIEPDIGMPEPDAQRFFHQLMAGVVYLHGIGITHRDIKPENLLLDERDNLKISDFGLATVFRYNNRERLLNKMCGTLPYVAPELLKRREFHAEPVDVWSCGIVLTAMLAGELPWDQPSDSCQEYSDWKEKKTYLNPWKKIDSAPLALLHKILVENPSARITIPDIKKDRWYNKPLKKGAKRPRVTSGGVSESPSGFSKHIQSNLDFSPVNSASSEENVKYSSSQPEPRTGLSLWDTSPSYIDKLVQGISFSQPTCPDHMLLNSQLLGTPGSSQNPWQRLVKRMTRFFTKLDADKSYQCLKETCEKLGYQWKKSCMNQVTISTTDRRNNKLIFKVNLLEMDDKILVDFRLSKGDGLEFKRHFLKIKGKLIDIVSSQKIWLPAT
The data set can be described thus: Inhibition of CHK1 (unknown origin).

Data set [9] has as its target T2, DNA repair protein RAD51 homolog 1 (Homo sapiens, UniProt Q06609).
T2 sequence (Q06609 whole entry): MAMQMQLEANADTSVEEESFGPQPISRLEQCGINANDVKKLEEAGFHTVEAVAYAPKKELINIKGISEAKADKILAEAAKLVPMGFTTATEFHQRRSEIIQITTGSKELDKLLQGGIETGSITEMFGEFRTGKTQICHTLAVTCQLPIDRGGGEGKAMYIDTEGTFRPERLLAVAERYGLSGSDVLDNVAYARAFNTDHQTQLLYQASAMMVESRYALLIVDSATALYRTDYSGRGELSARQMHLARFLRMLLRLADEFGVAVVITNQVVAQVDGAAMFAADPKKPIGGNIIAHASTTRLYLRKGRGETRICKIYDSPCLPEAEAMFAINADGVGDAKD
The data set can be described thus: Inhibition of RAD51 (unknown origin).

Data set [10] concerns the target Serine/threonine-protein kinase VRK2 (Homo sapiens, UniProt Q86Y07). In words: Inhibition of VRK2 (14 to 335 residues) (unknown origin) extracted from Escherichia coli BL21 (DE3)-R3 cells.
The target of data set [11] is Serine-protein kinase ATM (Homo sapiens, UniProt Q13315). The data set can be described thus: Inhibition of ATM (unknown origin).
For data set [12], the target named is Serine/threonine-protein kinase mTOR (Homo sapiens, UniProt P42345). In words: Inhibition of human mTOR.
In the next data set the test system is MDA-MB-436. In words: Antiproliferative activity against human MDA-MB-436 cells assessed as reduction in cell viability. It is filed as functional, cell-based.

Protein arginine N-methyltransferase 5, sequence (O14744 whole entry): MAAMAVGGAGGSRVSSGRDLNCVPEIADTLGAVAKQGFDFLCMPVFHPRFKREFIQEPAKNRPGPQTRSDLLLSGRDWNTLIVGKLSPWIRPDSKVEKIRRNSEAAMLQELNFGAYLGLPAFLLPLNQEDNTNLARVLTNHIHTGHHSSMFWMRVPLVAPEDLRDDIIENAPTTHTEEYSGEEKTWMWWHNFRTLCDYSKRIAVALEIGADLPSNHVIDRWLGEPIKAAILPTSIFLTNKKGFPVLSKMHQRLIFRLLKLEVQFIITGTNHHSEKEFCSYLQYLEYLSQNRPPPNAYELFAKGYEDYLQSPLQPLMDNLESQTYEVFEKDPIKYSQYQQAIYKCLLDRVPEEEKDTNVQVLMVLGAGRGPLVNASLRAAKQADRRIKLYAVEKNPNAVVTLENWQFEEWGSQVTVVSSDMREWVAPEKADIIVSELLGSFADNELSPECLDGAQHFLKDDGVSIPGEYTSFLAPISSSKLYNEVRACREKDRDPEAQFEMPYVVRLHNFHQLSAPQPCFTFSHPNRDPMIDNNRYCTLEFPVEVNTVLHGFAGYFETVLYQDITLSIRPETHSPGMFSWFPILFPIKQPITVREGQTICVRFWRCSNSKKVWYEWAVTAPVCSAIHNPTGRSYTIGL
Poly [ADP-ribose] polymerase 1, sequence (P09874 whole entry): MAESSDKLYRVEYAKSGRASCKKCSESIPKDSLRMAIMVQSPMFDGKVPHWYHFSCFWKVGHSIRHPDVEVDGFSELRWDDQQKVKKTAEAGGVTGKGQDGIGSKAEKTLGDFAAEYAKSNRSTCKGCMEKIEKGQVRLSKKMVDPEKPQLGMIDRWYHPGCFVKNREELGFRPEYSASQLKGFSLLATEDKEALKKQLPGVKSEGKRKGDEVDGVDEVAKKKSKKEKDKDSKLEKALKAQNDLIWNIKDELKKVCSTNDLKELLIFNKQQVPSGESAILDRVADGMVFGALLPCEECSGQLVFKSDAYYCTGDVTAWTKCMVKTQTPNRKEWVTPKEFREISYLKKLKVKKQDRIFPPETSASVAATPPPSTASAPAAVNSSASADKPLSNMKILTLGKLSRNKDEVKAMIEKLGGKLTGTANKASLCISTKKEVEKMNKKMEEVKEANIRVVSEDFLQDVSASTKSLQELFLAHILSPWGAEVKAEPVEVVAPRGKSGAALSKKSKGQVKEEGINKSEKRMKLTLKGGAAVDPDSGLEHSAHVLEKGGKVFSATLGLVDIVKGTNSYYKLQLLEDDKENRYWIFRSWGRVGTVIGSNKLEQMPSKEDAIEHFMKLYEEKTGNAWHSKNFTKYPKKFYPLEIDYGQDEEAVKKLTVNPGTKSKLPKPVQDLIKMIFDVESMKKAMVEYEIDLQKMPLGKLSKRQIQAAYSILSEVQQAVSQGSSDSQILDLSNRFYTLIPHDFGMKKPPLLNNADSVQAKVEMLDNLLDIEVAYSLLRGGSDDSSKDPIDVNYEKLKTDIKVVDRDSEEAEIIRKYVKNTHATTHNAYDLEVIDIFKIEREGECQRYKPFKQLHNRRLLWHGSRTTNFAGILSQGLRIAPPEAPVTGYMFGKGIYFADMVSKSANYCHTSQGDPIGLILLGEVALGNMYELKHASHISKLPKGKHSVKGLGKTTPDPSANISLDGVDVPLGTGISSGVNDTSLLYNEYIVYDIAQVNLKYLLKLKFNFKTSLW
Serine/threonine-protein kinase VRK2, sequence (Q86Y07 whole entry, the tested form may be a part): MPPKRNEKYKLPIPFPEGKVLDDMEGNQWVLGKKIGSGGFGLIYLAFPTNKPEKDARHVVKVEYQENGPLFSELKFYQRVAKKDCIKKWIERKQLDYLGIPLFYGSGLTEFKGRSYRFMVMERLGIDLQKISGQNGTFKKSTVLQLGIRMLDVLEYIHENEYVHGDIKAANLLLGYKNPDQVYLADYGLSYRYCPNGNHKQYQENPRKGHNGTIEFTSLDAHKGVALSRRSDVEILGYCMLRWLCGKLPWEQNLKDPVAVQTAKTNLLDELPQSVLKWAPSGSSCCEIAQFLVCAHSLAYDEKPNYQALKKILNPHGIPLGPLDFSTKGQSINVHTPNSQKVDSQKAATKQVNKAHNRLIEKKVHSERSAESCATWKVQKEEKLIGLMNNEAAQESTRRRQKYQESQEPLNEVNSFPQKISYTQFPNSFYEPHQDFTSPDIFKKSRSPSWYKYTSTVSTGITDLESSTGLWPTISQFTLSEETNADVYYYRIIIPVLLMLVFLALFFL

For `COc1cccc(NC(=O)c2cc(-c3ccc(/C=C4\C(=O)N(c5cccc(C(=O)O)c5)N=C4C)o3)ccc2Cl)c1`, in data set [1], half-maximal inhibition (IC50) required 3120 nM. Take `Cc1cc2cc(C(=O)N(Cc3ccc(C(F)(F)F)cn3)[C@@H]3CCCc4cn[nH]c43)ccc2nc1N`: the half-maximal inhibitory concentration (IC50) in [2] came out at 10 nM. The Ki in data set [3] came to 0.05 nM. As for `C[C@@H]1COCCN1c1nc(-c2ccnn2C)c2c(n1)c(-c1ccn[nH]1)nn2C`, in data set [4], the IC50 stood at 1 nM. In data set [5], `Cc1ccoc1C(=O)N1CCCN(C(=O)c2ccc(-c3nc4c(C(N)=O)cccc4[nH]3)cc2)CC1` had an IC50 of 22.8 nM.

For the compound `COC1/C=C/Cc2cnc3cc(C)c(cn23)Nc2ncc3c(n2)n(c(=O)n3C)CC1` (stereo unspecified), in [1], it took 4 nM to reach half-maximal inhibition (IC50). The compound `Cn1cc(-c2cnc(Nc3ccc(C#N)nc3)nc2N[C@H]2CCCNC2)cn1` had a half-life in data set [6] of 5.3 h. The compound also had an AUCt in data set [7] (po, 20 mg/kg) of 1370 ng·h/mL. The IC50 with MV4-11 amounted to 35 nM. Consider `Cc1cc2ncc3n2cc1Nc1ncc2c(n1)n(c(=O)n2C)CCCCC3`, for which it took 4 nM to reach half-maximal inhibition in data set [1] (IC50).

Turning to `COc1cccc(NC(=O)c2cc(-c3ccc(CC4C(=O)N(c5cccc(C(=O)O)c5)N=C4C)o3)ccc2Cl)c1` (stereo unspecified), in [1], half-maximal inhibition (IC50) was put at 500 nM. Still for that read-out and setting: the figure for `Cc1cc(C(N)=O)ccc1Nc1ncc2c(n1)n(C1CCOCC1)c(=O)n2C` is 0.08 nM. As for `Nc1nc2cc(F)c(C(=O)N(Cc3ccc(C(F)(F)F)cn3)C34CC(C3)C4)cc2c2c1COC2`, in data set [2], the 50% inhibitory concentration (IC50) is 8 nM. Turning to `N#Cc1ncc(Nc2ncc(-c3ccccc3)s2)cc1N[C@@H]1CCNC1`, in [8], the IC50 came to 4.25 nM. In data set [7] (Sprague-Dawley), the AUC(0-t) is 10700 ng·h/mL. Compound `O=c1nc(/C=C/c2cccnc2)n(Cc2ccccc2)c2ccccc12` returned an IC50 in data set [9] of 4300 nM. Regarding `COc1cccc(NC(=O)c2cc(-c3ccc(CC4C(=O)N(c5cccc(C(=O)O)c5)N=C4C(F)(F)F)o3)ccc2Cl)c1` (stereo unspecified), half-maximal inhibition in [1] (IC50) required 110 nM.

Consider `CC(C)CCN1c2nc(Nc3cc(F)c(O)c(F)c3)ncc2N(C)C(=O)[C@@H]1C`, for which, in data set [10], the midpoint of inhibition, the IC50, lay at 196 nM. Take `C[C@@H]1COC[C@H]2COc3c(nc(-c4ccnc5[nH]ccc45)nc3C(C)(C)C#N)N21`: the IC50 in [4] is 16 nM. In the case of `COc1cccc(NC(=O)c2cc(-c3ccc(CC4C(=O)N(c5cccc(-c6nnn[nH]6)c5)N=C4C)o3)ccc2Cl)c1` (stereo unspecified), the IC50 in [1] came out at 240 nM. The compound `Cn1c(=O)n2c3ccccc3oc3c(-c4ccc(OCCCN5CCCCC5)nc4)c(F)cc4ncc1c2c43` had an IC50 in data set [11] of 0.45 nM. `O=c1nc(/C=C/c2cccnc2)n(Cc2ccc(I)cc2)c2ccccc12` came in with an IC50 in data set [9] of 720 nM. With `C[C@@H]1COCCN1c1cc([C@]2(O)C[C@H]3CC[C@@H](C2)O3)c2cnn(-c3cc[nH]n3)c2n1` [CAMONSERTIB], the IC50 was found to be 1 nM in data set [4] and 120 nM in data set [12]. `COc1cc2ncn(-c3cc(OCc4ccccc4C(F)(F)F)c(C(N)=O)s3)c2cc1OC` [GW843682X] gave an IC50 in data set [11] of 480 nM. Take `O=C(c1cc(Cc2n[nH]c(=O)c3ccccc23)ccc1F)N1CCN(C(=O)C2CC2)CC1` [OLAPARIB]: in the data set with MDA-MB-436, the IC50 was determined as 23900 nM.
